Measurements published in patent US20240247080A1, “GLP1/GIP/NPY2 RECEPTOR TRIPLE AGONISTS” (Boehringer Ingelheim International GmbH, priority 2022, published 2024).
Read-outs that look alike come from different tables or passages of the source. Starred links: 1 amine or outer side, 2 acyl side, 3 side chain; linkers in the order of their positions; H or OH if unused. Non-standard residues stand in square brackets, D forms with d. Groups on a side chain read outwards from the residue. No end group written: not given here. *: point of attachment. C20 diacid = O=C(O)CCCCCCCCCCCCCCCCCCC(=O)*; C18 diacid = O=C(O)CCCCCCCCCCCCCCCCC(=O)*; γGlu = O=C(O)[C@H](CCC(=O)[*:2])N[*:1]; εLys = N[C@@H](CCCCN[*:1])C(=O)[*:2]; AEEA = NCCOCCOCC(=O)O; Aib = CC(C)(N)C(=O)O

Tests used:
[1] = target: T1, hNPY2R (Homo sapiens, UniProt P49146); test: hNPY2R CreLuc reporter gene assay in 0.5% and 100% plasma; assay type: cell-based; details: CreLuc reporter gene assay, 0.5% human plasma; read-out: hNPY2R 0.5% hP
T1 construct: expressed in transfected cells; host or cells: HEK-293 cells carrying a CRE-luciferase reporter gene
T1 sequence (P49146 1-381): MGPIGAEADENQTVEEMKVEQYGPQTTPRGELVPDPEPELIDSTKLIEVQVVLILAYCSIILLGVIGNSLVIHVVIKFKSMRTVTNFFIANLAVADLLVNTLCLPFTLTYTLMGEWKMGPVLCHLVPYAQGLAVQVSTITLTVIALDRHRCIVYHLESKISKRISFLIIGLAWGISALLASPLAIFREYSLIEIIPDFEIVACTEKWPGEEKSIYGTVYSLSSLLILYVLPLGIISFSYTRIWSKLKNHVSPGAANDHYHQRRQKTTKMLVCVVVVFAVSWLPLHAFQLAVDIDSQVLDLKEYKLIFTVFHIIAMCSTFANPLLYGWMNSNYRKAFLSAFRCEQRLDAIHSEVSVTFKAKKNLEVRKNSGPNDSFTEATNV
Method in brief: (§1)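 Agonist EC50s came from 8-concentration curves over four decades, fitted by non-linear variable-slope regression of CRE-driven luciferase luminescence. Cells were exposed 4 h at 37 °C, in buffer with 0.5% human plasma or in 100% plasma; GIPR was expressed in CHO cells, GLP-1R and NPY2R in HEK cells.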

[2] = target: T2, hGIPR (Homo sapiens, UniProt P48546); test: hGIPR CreLuc reporter gene assay in 0.5% and 100% plasma; assay type: cell-based; details: CreLuc reporter gene assay
T2 construct: expressed in transfected cells; host or cells: CHO cells carrying a CRE-luciferase reporter gene
T2 sequence (P48546 22-466): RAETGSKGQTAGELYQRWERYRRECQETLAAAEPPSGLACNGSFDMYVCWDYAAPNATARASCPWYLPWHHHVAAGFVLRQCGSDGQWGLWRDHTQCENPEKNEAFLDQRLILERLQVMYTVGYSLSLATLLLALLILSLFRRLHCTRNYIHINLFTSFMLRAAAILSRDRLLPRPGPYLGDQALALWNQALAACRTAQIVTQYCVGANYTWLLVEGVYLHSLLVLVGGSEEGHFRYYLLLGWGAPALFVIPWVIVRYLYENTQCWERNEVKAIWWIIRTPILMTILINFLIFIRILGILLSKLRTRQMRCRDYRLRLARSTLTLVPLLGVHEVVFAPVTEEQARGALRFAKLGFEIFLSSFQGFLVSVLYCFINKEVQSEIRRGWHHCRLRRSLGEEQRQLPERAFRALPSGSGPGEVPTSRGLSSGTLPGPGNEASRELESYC
Method in brief: as §1

[3] = Mouse PK after intravenous application; assay type: in vivo; details: plasma, mean residence time, intravenous 30-60 nmol/kg, male NMRI mice
Method: Pharmacokinetic parameters of the peptides were determined after intravenous application to NMRI mice. Male NMRI mice were obtained from Janvier Laboratories (France) weighing 30 to 40 g. Mice were housed in standard cages with a 12:12 hour light:dark cycle and standard food and water access ad libitum. Each test peptide was dissolved in 50 mM phosphate buffer (pH 7.4)/3.5% mannitol. Intravenous application of 30-60 nmol/kg was performed via the tail vein. Serial blood samples from conscious mice were collected from the saphenous vein in EDTA-containing vials at different time points up to 56 hours post-dosing. Subsequently, plasma was prepared by centrifugation for 5 min at approximately 5000 rpm and stored at −20° C. until quantification of the peptide plasma levels by liquid chromatography mass spectrometry (LC-MS). Individual plasma concentration—time profiles were analysed by a non-compartmental approach and the resulting pharmacokinetic parameters were calculated.

[4] = target: T3, hGLP1R (Homo sapiens, UniProt P43220); test: hGLP1R CreLuc reporter gene assay in 0.5% and 100% plasma; assay type: cell-based; details: CreLuc reporter gene assay
T3 construct: expressed in transfected cells; host or cells: HEK-293 cells carrying a CRE-luciferase reporter gene
Method in brief: as §1

[5] = 0.5% human plasma, read-out: hGIPR 0.5% hP
[6] = 100% human plasma, read-out: hGIPR 100% hP
[7] = 0.5% human plasma, read-out: hGLP1R 0.5% hP
[8] = 100% human plasma, read-out: hGLP1R 100% hP

T3 sequence (P43220 24-463): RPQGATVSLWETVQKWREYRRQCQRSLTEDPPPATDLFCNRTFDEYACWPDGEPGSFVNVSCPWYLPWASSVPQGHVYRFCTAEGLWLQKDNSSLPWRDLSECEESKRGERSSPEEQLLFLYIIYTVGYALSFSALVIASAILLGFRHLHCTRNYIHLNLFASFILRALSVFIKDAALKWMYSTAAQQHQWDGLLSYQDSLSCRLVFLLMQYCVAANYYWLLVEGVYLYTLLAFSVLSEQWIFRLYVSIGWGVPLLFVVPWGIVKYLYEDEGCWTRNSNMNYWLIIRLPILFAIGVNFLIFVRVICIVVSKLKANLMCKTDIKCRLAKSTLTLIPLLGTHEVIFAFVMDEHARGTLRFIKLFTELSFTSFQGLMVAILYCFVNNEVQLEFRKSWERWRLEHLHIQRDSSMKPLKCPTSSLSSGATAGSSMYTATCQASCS

CC[C@H](C)[C@H](NC(=O)[C@H](CC(C)C)NC(=O)[C@H](Cc1c[nH]c2ccccc12)NC(=O)[C@H](CCC(=O)O)NC(=O)[C@@H](NC(=O)[C@H](Cc1ccccc1)NC(=O)[C@H](C)NC(=O)C(C)(C)NC(=O)[C@H](CCC(N)=O)NC(=O)[C@H](C)NC(=O)[C@H](CCC(N)=O)NC(=O)[C@H](CCCCN)NC(=O)[C@H](CCC(=O)O)NC(=O)[C@H](CC(C)C)NC(=O)C(C)(C)NC(=O)[C@@H](NC(=O)[C@H](CO)NC(=O)[C@H](Cc1ccc(O)cc1)NC(=O)[C@H](CC(=O)O)NC(=O)[C@H](CO)NC(=O)[C@@H](NC(=O)[C@H](Cc1ccccc1)NC(=O)[C@@H](NC(=O)CNC(=O)[C@H](CCC(=O)O)NC(=O)C(C)(C)NC(=O)[C@@H](N)Cc1ccc(O)cc1)[C@@H](C)O)[C@@H](C)O)[C@@H](C)CC)C(C)C)C(=O)N[C@@H](CCCCNC(=O)[C@@H](N)CCCCNC(=O)CC[C@H](NC(=O)CC[C@H](NC(=O)CC[C@H](NC(=O)CC[C@H](NC(=O)CC[C@H](NC(=O)CC[C@H](NC(=O)CCCCCCCCCCCCCCCCCCC(=O)O)C(=O)O)C(=O)O)C(=O)O)C(=O)O)C(=O)O)C(=O)O)C(=O)NCC(=O)NCC(=O)N1CCC[C@H]1C(=O)N[C@@H](CO)C(=O)N[C@@H](CO)C(=O)NCC(=O)N[C@@H](C)C(=O)N[C@@H](CO)C(=O)N[C@@H](CC(C)C)C(=O)N[C@@H](CCCNC(=N)N)C(=O)N[C@@H](Cc1c[nH]cn1)C(=O)N[C@@H](Cc1ccc(O)cc1)C(=O)N[C@@H](Cc1ccc(O)cc1)C(=O)N[C@@H](CC(N)=O)C(=O)N[C@@H](Cc1c[nH]c2ccccc12)C(=O)N[C@@H](CC(C)C)C(=O)N[C@H](C(=O)N[C@@H](CCCNC(=N)N)C(=O)N(C)[C@@H](CCC(N)=O)C(=O)N[C@@H](CCCNC(=N)N)C(=O)N[C@@H](Cc1ccc(O)cc1)C(N)=O)[C@@H](C)O [Compound 85, Y-Aib-E-G-T-F-T-S-D-Y-S-I-Aib-L-E-K-Q-A-Q-Aib-A-F-V-E-W-L-I-K(1,3)-G-G-P-S-S-G-A-S-L-R-H-Y-Y-N-W-L-T-R-NMeQ-R-Y-NH2.C20DA-gGlu-gGlu-gGlu-gGlu-gGlu-gGlu-eLys(1,2)]
EC50 [1]: 10.3 nM | EC50 [2, 5]: 0.22 nM | EC50 [2, 6]: 1.11 nM | MRT [3]: 12.6 h | EC50 [4, 7]: 0.15 nM

Y[Aib]EGTFTSDYSI[Aib]LEKQAQ[Aib]AFVQWLIK([γGlu-γGlu-γGlu-γGlu-γGlu-γGlu-C20 diacid])GGPSEGASLRHYYNWLTRQRY-NH2 [Compound 223, Y-Aib-E-G-T-F-T-S-D-Y-S-I-Aib-L-E-K-Q-A-Q-Aib-A-F-V-Q-W-L-I-K(1,3)-GGPSEGASLRHYYNWLTRQRY-NH2.C20DA-gGlu-gGlu-gGlu-gGlu-gGlu-gGlu(1,2)]
EC50 [1]: 13.2 nM | EC50 [2, 5]: 0.39 nM | MRT [3]: 8.8 h | EC50 [4, 7]: 0.18 nM | EC50 [4, 8]: 4.39 nM

CC[C@H](C)[C@H](NC(=O)[C@H](CC(C)C)NC(=O)[C@H](Cc1c[nH]c2ccccc12)NC(=O)[C@H](CCC(=O)O)NC(=O)[C@@H](NC(=O)[C@H](Cc1ccccc1)NC(=O)[C@H](C)NC(=O)C(C)(C)NC(=O)[C@H](CCC(N)=O)NC(=O)[C@H](C)NC(=O)[C@H](CCC(N)=O)NC(=O)[C@H](CCCCN)NC(=O)[C@H](CCC(=O)O)NC(=O)[C@H](CC(C)C)NC(=O)C(C)(C)NC(=O)[C@@H](NC(=O)[C@H](CO)NC(=O)[C@H](Cc1ccc(O)cc1)NC(=O)[C@H](CC(=O)O)NC(=O)[C@H](CO)NC(=O)[C@@H](NC(=O)[C@H](Cc1ccccc1)NC(=O)[C@@H](NC(=O)CNC(=O)[C@H](CCC(=O)O)NC(=O)C(C)(C)NC(=O)[C@@H](N)Cc1ccc(O)cc1)[C@@H](C)O)[C@@H](C)O)[C@@H](C)CC)C(C)C)C(=O)N[C@@H](CCCCNC(=O)[C@@H](N)CCCCNC(=O)CC[C@H](NC(=O)CC[C@H](NC(=O)CC[C@H](NC(=O)CC[C@H](NC(=O)CC[C@H](NC(=O)CC[C@H](NC(=O)CCCCCCCCCCCCCCCCCCC(=O)O)C(=O)O)C(=O)O)C(=O)O)C(=O)O)C(=O)O)C(=O)O)C(=O)NCC(=O)NCC(=O)N1CCC[C@H]1C(=O)N[C@@H](CO)C(=O)N[C@@H](CO)C(=O)NCC(=O)N[C@@H](C)C(=O)N[C@@H](CO)C(=O)N[C@@H](CC(C)C)C(=O)N[C@@H](CCCNC(=N)N)C(=O)N[C@@H](Cc1c[nH]cn1)C(=O)N[C@@H](Cc1ccc(O)cc1)C(=O)N[C@@H](Cc1ccc(O)cc1)C(=O)N[C@@H](CC(N)=O)C(=O)N[C@@H](Cc1c[nH]c2ccccc12)C(=O)N[C@@H](CC(C)C)C(=O)N[C@H](C(=O)N[C@@H](CCCNC(=N)N)C(=O)N[C@@H](CCC(N)=O)C(=O)N[C@@H](CCCNC(=N)N)C(=O)N[C@H](Cc1ccc(O)cc1)C(N)=O)[C@@H](C)O [Compound 214, Y-Aib-E-G-T-F-T-S-D-Y-S-I-Aib-L-E-K-Q-A-Q-Aib-A-F-V-E-W-L-I-K(1,3)-GGPSSGASLRHYYNWLTRQR-DTyr-NH2.C20DA-gGlu-gGlu-gGlu-gGlu-gGlu-gGlu-eLys(1,2)]
EC50 [1]: > 99.9 nM | EC50 [2, 5]: 0.23 nM | EC50 [2, 6]: 1.81 nM | MRT [3]: 10.1 h | EC50 [4, 7]: 0.19 nM | EC50 [4, 8]: 2.65 nM

Y[Aib]EGTFTSDYSI[Aib]LEKQAQ[Aib]AFVEWLIK([εLys-γGlu-γGlu-γGlu-γGlu-γGlu-γGlu-γGlu-C20 diacid])GGPSSGASLRHYYNWLTRQRY-NH2 [Compound 225, Y-Aib-E-G-T-F-T-S-D-Y-S-I-Aib-L-E-K-Q-A-Q-Aib-A-F-V-E-W-L-I-K(1,3)-GGPSSGASLRHYYNWLTRQRY-NH2.C20DA-gGlu-gGlu-gGlu-gGlu-gGlu-gGlu-gGlu-eLys(1,2)]
EC50 [1]: 14.9 nM | EC50 [2, 5]: 0.28 nM | EC50 [2, 6]: 1.23 nM | MRT [3]: 13 h | EC50 [4, 7]: 0.12 nM

Y[Aib]EGTFTSDYSI[Aib]LEKQAQ[Aib]EFVEWLIK([AEEA-AEEA-γGlu-γGlu-γGlu-C18 diacid])GGPSEGASLRHYYNWLTRQRY-NH2 [Compound 284, Y-Aib-E-G-T-F-T-S-D-Y-S-I-Aib-L-E-K-Q-A-Q-Aib-E-F-V-E-W-L-I-K(1,3)-GGPSEGASLRHYYNWLTRQRY-NH2.C18DA-gGlu-gGlu-gGlu-OEG-OEG(1,2)]
EC50 [1]: 18.8 nM | EC50 [2, 5]: 0.33 nM | EC50 [2, 6]: 0.8 nM | MRT [3]: 6.8 h | EC50 [4, 7]: 0.51 nM
